Publication PMC7145288, “New Peptide-Based Pharmacophore Activates 20S Proteasome” (Molecules, 2020)

What was measured:
[1] = tested on: proteasome ChT-L activity in SK-N-SH (ATCC HTB-11) cell lysates; experiment: ChT-L proteasome activity in lysates of treated SK-N-SH cells; type: cell-based, human; conditions: SK-N-SH cells; for Proteasome ChT-L activity in lysates of treated cells versus control lysates (in words): 1 µM peptide, 24 h, 1 μg lysate, 50 μM Suc-LLVY-AMC, n = 3–4
Method: […] The content of live cells was determined by the Trypan Blue-exclusion assay. The cells were harvested, washed twice in PBS, resuspended in dilution buffer (see above) and stored in −80 °C. To prepare lysates the thawed preparations were vortexed with glass beads and centrifuged for 5 min 5000× g (4 °C). The supernatant was centrifuged for 20 min 14,000× g (4 °C). The resulting supernatant—“crude lysate” was diluted to 1 mg/mL of total protein with dilution buffer. 1 μg of lysate per assay (reaction buffer: 50 mM Tris/HCl pH 8, 0.1 mM MgCl2, 0.2 mM ATP, 0.1 mM dithiothreitol, 50 μM Suc-LLVY-AMC) was used for determination of ChT-L activity in a 96-well format, as above.

[2] = tested on: 20S core proteasome α face pockets; experiment: Competition with Rpt C-terminal tail peptides for α face pockets (ChT-L activity); type: biochemical, human; conditions: Rpt peptide 1 μM added before TAT peptide; for Competition with Rpt tail peptides (in words, from radar plot scores): Rpt2 α3/α4, Rpt3 α1/α2, Rpt5 α5/α6, Rpt6 α2/α3 pocket, three to six experiments; for Enhanced (synergistic) activation with Rpt tail peptides (in words): Rpt5 or Rpt6 tails
Description: As mentioned above, the binding pockets on the α face accept “anchors” from natural protein ligands of the 20S core. […] The 10-residue Rpt-derived C-terminal “tail” peptides (“Rpt peptides”) can be used as competitors with the Rpt subunits or with small allosteric ligands. Importantly, the Rpt peptides interject between the subunits with their C-termini, whereas TAT peptides, according to the modeling, use their N-termini for this purpose. To test the specificity of interactions between TAT compounds and the α face, we performed competition experiments. The 20S core was challenged with selected TAT compounds after treatment with Rpt peptides. We selected peptides of Rpt2 ([…]), Rpt3 ([…]), Rpt5 ([…]) and Rpt6 […]) subunits, docking in α3/α4, α1/α2, α5/α6 and α2/α3 pockets, respectively. Tails of Rpt2, 3, and 5 display the canonical HbYX motif, whereas the LeuTrpLys C-terminus of Rpt6 may be considered “pseudo-HbYX”, with a bulky Trp replacing Tyr. Results of the competition experiments are presented as radar plots in Figure 7. […] This pocket also emerged as the major binding site for (1) and (8). However, these compounds likely weakly competed with the Rpt2 tail for binding to the α3/α4 pocket as well. The α3/α4 pocket seemed to be favored by (6). […] These complex patterns point at the importance of allosteric effects between the α face ligands, the gate and the catalytic chamber.
Figure 7 TAT1 derivatives competed with selected C-terminal tails of Rpt (Regulatory Particle ATPases) subunits for binding to specific α face pockets. The scores presented in radar plots were calculated as ((relative activation by the [x] and Rpt tail)-(theoretical sum of activation by [x] and Rpt tail))/(theoretical sum of activation by [x] and Rpt tail), where [x] represent any TAT peptide. […] The positive scores for combinations of selected compounds with Rpt5 or Rpt6 tails indicated a presumed synergy in activation of the core. Average scores derived from three to six experiments are presented. The competition effects were statistically significant (at least p < 0.05) for Rpt3 peptide and (1) and (8), as well as for Rpt2 peptide and (6).
Human housekeeping core (20S) proteasome purified from erythrocytes was purchased from Boston Biochem, Inc. (Cambridge, MA) or from Enzo Life Sciences, Inc. (Farmingdale, NY). Multiple batches of the proteasomes were used and performed reproducibly. The stock proteasome was diluted to 0.2 mg/mL working solution in “dilution buffer” (50 mM Tris/HCl, pH 8, 20% glycerol). The following model peptide substrates, all releasing fluorescent 7-amino-4-methylcoumarin (AMC) reporter group after cleavage, were used: succinyl-LeuLeuValTyr-AMC (for the ChT-L peptidase; SucLLVY-AMC; Bachem Bioscience Inc., Philadelphia, PA), butoxycarbonyl-LeuArgArg-AMC (T-L; Bachem Bioscience Inc., Philadelphia, PA) and carbobenzoxy- LeuLeuGlu-AMC (PGPH; Enzo Life Sciences Inc., Farmingdale, NY). The substrates were used at concentration of 50 μM (ChT-L) or 100 μM (T-L, PGPH). Free AMC (Sigma-Aldrich, St. Louis, MO) was used as the standard. The C-terminal peptides derived from Rpt2, Rpt3, Rpt5 and Rpt6 were synthesized (standard solid-phase peptide chemistry) and purified to at least 98% purity by GenScript (Piscataway, NJ). The TAT peptides, Rpt peptides (except Rpt6) and the peptide substrates were dissolved in anhydrous dimethylsulfoxide (DMSO; Sigma-Aldrich, St. Louis, MO) and such stock solutions were stored at −20 °C. The total concentration of DMSO in final reaction mixtures never exceeded 3% (vol/vol). The Trp (tryptophan) -containing Rpt6 peptide was dissolved in ultrapure water and stored at −20 °C, protected from light. […]

Row | SMILES | Proteasome ChT-L activity in lysates of treated cells versus control lysates (in words) [1] | Dose dependent proteasome activation, 4 h versus 24 h exposure (in words) ([1]; 0.5 or 1.0 µM, 4 or 24 h) | Competition with Rpt tail peptides (in words, from radar plot scores) [2] | Enhanced (synergistic) activation with Rpt tail peptides (in words) [2]
1 | N=C(N)NCCC[C@H](NC(=O)CN)C(=O)N[C@@H](CCCCN)C(=O)N[C@@H](CCCCN)C(=O)N[C@@H](CCCNC(=N)N)C(=O)N[C@@H](CCCNC(=N)N)C(=O)N[C@@H](CCC(N)=O)C(=O)N1Cc2ccccc2C[C@H]1C(=O)N1[C@@H](C(=O)N[C@@H](CCCNC(=N)N)C(=O)N2CCC[C@H]2C(=O)N[C@@H](CO)C(=O)O)C[C@H]2CCCC[C@H]21 [(5)] | significantly higher than activity in control lysates | substantially stronger after 4 h exposure than after 24 h | competed fairly specifically with Rpt3 tail | enhanced activation in the presence of one of Rpt tails, namely Rpt5 or Rpt6
2 | NCCCC[C@H](NC(=O)[C@H](CCCCN)NC(=O)[C@H](CCCCN)NC(=O)c1cc(NC(=O)[C@H](CCCCN)NC(=O)[C@H](CCCCN)NC(=O)[C@@H](N)CCCCN)cc(NC(=O)[C@H](CCCCN)NC(=O)[C@H](CCCCN)NC(=O)[C@@H](N)CCCCN)c1)C(=O)O [(8)] | significantly higher than activity in control lysates | – | added a weakly negative score for the Rpt2 tail to the presumed major competitor Rpt3 | enhanced activation in the presence of one of Rpt tails, namely Rpt5 or Rpt6
